In patent US20240018146A1, “COMPOSITIONS AND METHODS OF USING THE SAME FOR TREATMENT OF NEURODEGENERATIVE AND MITOCHONDRIAL DISEASE” (MITOKININ, INC., priority 2020, published 2024):
≈ marks a conversion by molar mass, not a printed value. Where two headings read alike, the source gives them in different places.

Tests used:
[1] = Kinetic solubility; assay type: physicochemical
[2] = Mitotoxicity / Mitotox safety margin (therapeutic window); assay type: cell-based; details: for mitotoxicity: FIG. 5-7
[3] = tested on: HeLa MKYP cells; assay: Human mitophagy assay (HeLa mKeima assay, FACS); assay type: cell-based; details: for EC50: Homo sapiens, HeLa
How it was run: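 HeLa cells carrying the pH-sensitive mtKeima tag incubated 16 h with compound at several concentrations, then 1 uM FCCP/oligomycin for 6 h. FACS detects mitochondria in lysosomes through the Keima emission shift, quantified as percentage of cells in mitophagy.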

[4] = tested on: HeLa MKYP cells; assay: Cell death measured by DAPI staining, with 1 μM FCCP/oligomycin or no toxin (no FO); assay type: cell-based; details: for Max cell death at 25 μM compound, 1 uM FO (%) / Cell death at 25 μM (no FO) (%) / E104 death at 25 μM (no FO): 25 μM compound; for E105 death at 8.3 μM (no FO): 8.3 μM compound
How it was run: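 HeLa MKYP cells were treated with compounds alongside 1 μM FCCP/oligomycin or no toxin for 6 or 6.5 h. Cell death was scored by DAPI staining, with H2O2 treatment as the death control.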

[5] = tested on: pS129 α-syn; assay: Preformed fibril (PFF) model in primary neuron culture, pS129 α-syn; assay type: cell-based; details: FIG. 8A-C
Description: 4. Preformed Fibril Model
Mouse and human alpha-synuclein monomers have been sourced commercially, then pre-formed fibrils have been generated as per the detailed protocol provided by the MJFF. For in vitro experiments primary hippocampal neurons isolated from P0 pups were grown for 7 days after which PFFs at 5 ug/ml were introduced Pre-formed fibrils will be introduced via stereotactic injection into the striatum of wt (C57BL/6J, Jax #000664) and transgenic A53T mice (B6;C3-Tg(Prnp-SNCA*A53T)83Vle/J, Jax #004479). Cohorts of drug-treated (oral gavage) and untreated animals will then be allowed to age for up to 6 months, at which point they will be sacrificed and perfused. Brains will be removed and fixed, then sectioned for analysis. We anticipate that untreated A53T animals will show significant spreading of aggregated alpha-synuclein pathology and pS129 staining, as well as some possible neurodegeneration; wt animals are also expected to show pS129 synuclein staining and synuclein aggregation, albeit less than that seen in the A53T background.

[6] = Inspection of crystallization and round cells; assay type: physicochemical; design: key: 1=yes crystals; 0=no crystals
Description: 5. Inspection of Crystallization and Round Cells
Briefly, the Hela MKYP (Mito-Keima/YFP-Parkin) cells were seeded at 10K cells/well. EP/MTK compounds were added at seeding (cells were still in suspension). The cells were incubated with the EP/MTK compounds for 16 hours, then 1 μM FCCP/oligomycin was added for 6 hours. Prior to harvesting, cells were scored by eye under 20× magnification for the presence or absence of crystalline or aggregated compound, or round cells.

[7] = HeLa mKeima assay, read-out: Mitophagy EC50 (HeLa mKeima assay)
[8] = read-out: Mitophagy induction EC50
[9] = mitophagy, 1 μM FCCP/oligomycin, read-out: E100 EC50
[10] = mitophagy, 1 μM FCCP/oligomycin
[11] = average ± spread, read-out: E100 EC50 (μM) (average)

| Compound | solubility kinetic [1] | Mitotox safety margin (Therapeutic window) [2] | Mito-Safety Index (highest safe dose/EC50) [2] | Highest safe dose (μM) (mitotox or cytotox) [2] | EC50 [3, 7] | EC50 [3, 8] | Max cell death at 25 μM compound, 1 uM FO (%) [4] | Cell death at 25 μM (no FO) (%) [4] | Highest safe dose (cytotoxicity; no FO; safe means DAPI+ <20%) [4] | Max % death with 1 μM FO [4] | E102 max mitophagy, fold over DMSO ([3]; 1 μM FCCP/oligomycin) | EC50 [3, 9] | E101 lowest effective dose [3, 10] | E105 death at 8.3 μM (no FO) [4] | E104 death at 25 μM (no FO) [4] | E103 max death with 1 μM FO [4] | mitotoxicity [2] | further results |
| --- | --- | --- | --- | --- | --- | --- | --- | --- | --- | --- | --- | --- | --- | --- | --- | --- | --- | --- |
| c1ccc2c(c1)CC[C@H](N1CCOCC1)[C@H]2Nc1ncnc2[nH]c(C3CC3)cc12 (racemic) [EP-0039677] | 1.56 µM (≈ 0.608 µg/mL) | ++++ (++++ = 30<) | 13.51 | 2.8 µM | 0.21 µM | 0.21 µM | 10.2% | 3.02% | 25.0 µM | 10.2% | – | – | – | – | – | – | – | – |
| FC(F)(F)c1cc2c(N[C@H]3c4ccccc4CC[C@@H]3N3CCOCC3)ncnc2[nH]1 (single isomer, unassigned) [EP-0038098] | 14.1 µM (≈ 5.89 µg/mL) | ++++ (++++ = 30<) | – | – | 0.22 µM | – | 24% | 5.29% | – | – | 9.78 fold over DMSO | 0.22 µM | 0.10 µM | 2.59 | 5.29 | 24.02 | – | pathological α-synuclein levels in primary neurons [5]: reduce pathological α-synuclein levels; EC50 ([3]; text statement referring to Tables 2A and 2B, FIG. 1A-F, read-out: EC50): < 0.3 µM; toxicity ([4]; text statement referring to Tables 2A and 2B, FIG. 1A-F): less than 10% |
| FC(F)(F)c1cc2c(N[C@H]3c4ccccc4CC[C@@H]3N3CC4(CCOCC4)C3)ncnc2[nH]1 (single isomer, unassigned) [EP-0038463] | 153 µM (≈ 70 µg/mL) | + (+ = <10) | 3.20 | 8.3 µM | 2.59 µM | 2.59 µM | 87.805% | 59.8% | 8.3 µM | 87.8% | 3.95 fold over DMSO | 2.59 µM | 2.78 µM | 4.21 | 59.77 | 87.81 | low mitotoxicity | visual inspection of crystallization ([6]; 0.1 μM compound): 0; visual inspection of crystallization ([6]; 0.3 μM compound): 0; visual inspection of crystallization ([6]; 0.9 μM compound): 0; visual inspection of crystallization ([6]; 2.8 μM compound): 0; visual inspection of crystallization ([6]; 8.3 μM compound): 0; visual inspection of crystallization ([6]; 25.0 μM compound, HeLa MKYP culture, 20× magnification): 0 |
| Fc1ccc2c(c1)CC[C@H](N1CCOCC1)[C@H]2Nc1ncnc2[nH]c(C(F)(F)F)cc12 (single isomer, unassigned) [EP-0038503] | 1.56 µM (≈ 0.679 µg/mL) | ++ (++ = 10 < x < 20) | 17.40 | 8.3 µM | 0.38 µM | 0.48 µM | 8.15% | 2.53% | 25.0 µM | 6.3% | 5.11 fold over DMSO | 0.58 µM | 8.33 µM | – | – | 4.37 | low mitotoxicity | EC50 [3, 11]: 0.48 ± 0.1 µM |
| Fc1ccc2c(c1)CC[C@@H](N1CCOCC1)[C@@H]2Nc1ncnc2[nH]c(C(F)(F)F)cc12 (single isomer, unassigned) [EP-0038504] | 1.56 µM (≈ 0.679 µg/mL) | + (+ = <10) | 1.76 | 25.0 µM | 14.2 µM | 14.2 µM | 4.59% | 3.1% | 25.0 µM | 4.6% | 4.67 fold over DMSO | 14.2 µM | 8.33 µM | 2.93 | 3.10 | 4.59 | low mitotoxicity | – |
| Fc1ccc2c(c1)CC[C@H](N1CCOCC1)[C@H]2Nc1ncnc2[nH]c(C3CC3)cc12 (single isomer, unassigned) [EP-0038521] | 1.56 µM (≈ 0.636 µg/mL) | +++ (+++ = 20 < x < 30) | 24.49 | 8.3 µM | 0.37 µM | 0.34 µM | 6.77% | 3.42% | 25.0 µM | 7.6% | 5.24 fold over DMSO | 0.37 µM | 2.78 µM | – | – | 6.77 | low mitotoxicity | EC50 [3, 11]: 0.3 ± 0.07 µM |
| FC(F)(F)c1cc2c(N[C@H]3c4ccccc4CC[C@@H]3N3C[C@H]4COC[C@H]4C3)ncnc2[nH]1 (single isomer, unassigned) [EP-0038582] | – | – | – | 25.0 µM | – | > 25 µM | 5.87% | 3.77% | 25.0 µM | 4.3% | – | – | – | – | – | – | – | solubility kinetic ([1]; kinetic from dmso stock): 1.56 µM (≈ 0.692 µg/mL); Mitophagy EC50 (HeLa mKeima assay) (μM) ([3]; HeLa mKeima assay): Minimal |
| FC(F)(F)c1cc2c(N[C@@H]3c4ccccc4CC[C@H]3N3C[C@H]4COC[C@H]4C3)ncnc2[nH]1 (single isomer, unassigned) [EP-0038583] | 1.56 µM (≈ 0.692 µg/mL) | + (+ = <10) | 158.93 | 9.1 µM | 0.07 µM | 0.06 µM | 39.5% | 6.03% | 25.0 µM | 18.1% | – | – | – | – | – | – | – | – |
| FC(F)(F)c1cc2c(N[C@@H]3c4ccccc4CC[C@@H]3N3CCOCC3)ncnc2[nH]1 [EP-0037820] | 14.5 µM (≈ 6.05 µg/mL) | + (+ = <10) | – | – | 17.4 µM | 20.3 µM | 58% | 41.4% | 16.7 µM | 60.7% | – | – | – | – | – | – | – | – |
